# Reference: patent US10047057B2, “Functionalized tyrosine kinase inhibitors modified with precious metal electrophiles and methods associated therewith” (WAKE FOREST UNIVERSITY, priority 2014, dated 2018)
# Experiments:
# [1] = system: NCI-H1975 cells; assay: Cell proliferation assay (Celltiter 96), NCI-H1975; conditions: read-out: IC50 NCI-H1975; Table 1; IC50 ± S.D., two experiments in triplicate; L858R/T790M EGFR
# Description: (§1) The cell line NCI-H460 is a model of a large-cell carcinoma and is characterized by wild-type EGFR-TK. By contrast, NCI-H1975 adenocarcinoma cells harbor a point mutation (L858R) in exon 21 as well as a secondary mutation (T790M) at the bottom of the hydrophobic ATP binding pocket.
# (§2) The human non-small cell lung cancer cell lines, NCI-H460 (large cell) and NCI-H1975 (adenocarcinoma), were obtained from the American Type Culture Collection (Rockville, Md., USA). […] Cells were incubated at a constant temperature at 37° C. in a humidified atmosphere containing 5% CO2 and were subcultured every 2 to 3 days in order to maintain cells in logarithmic growth. The cytotoxicity studies were carried out according to a standard protocol using the Celltiter 96 aqueous nonradioactive cell proliferation assay kit (Promega, Madison, Wis.). Stock solutions (10 mM) of all drugs were made in DMF and serially diluted with media prior to incubation with cancer cells. IC50 values were calculated from dose-response curves using sigmoidal curve fits in GraphPad Prism (GraphPad Software, La Jolla, Calif.).
# [2] = system: NCI-H460 cells; assay: Cell proliferation assay (Celltiter 96), NCI-H460; conditions: Homo sapiens, NCI-H460, read-out: IC50 NCI-H460
# Description: as §1, §2
structure (smiles),measurement,setting,value
"CCOc1cc2ncnc(Nc3ccc(F)c(Cl)c3)c2cc1N(C)C(=S)NC [Compound 7, 1-(4-((3-Chloro-4-fluorophenyl)amino)-7-ethoxyquinazolin-6-yl)-1,3-dimethylthiourea]",IC50,[1],51.7 ± 1.1 µM
same,IC50,[2],36 ± 4.4 µM
